Results: US20230295234A1, “ANTIMICROBIAL PEPTIDOMIMETICS” (SPEXIS AG, priority 2020, published 2023)
Peptide text beside a SMILES is read from it.

Tests used:
[1] = system: Escherichia coli ATCC 25922; conditions: ATCC 25922
Method: (§1) Lyophilized peptides were weighed on a Microbalance (Mettler MT5) and dissolved in sterile water to a final concentration of 1 mg/mL. Stock solutions were kept at +4° C., light protected.
(§2) Colonies of the microorganisms were diluted in saline (0.85%, NaCl) and adjusted using a McFarland reader (bioMérieux SA, Marcy-l'Etoile, France) to 0.5 McFarland standard. Subsequently, the bacterial suspension was diluted in Mueller-Hinton II (MHII, cation adjusted) broth to give approximately 5×10^5 colony forming units (CFU/mL).
(§3) 10^6 colony forming units (CFU)/mL. Aliquots (90 μl) of inoculate were added to 10 μl of water+P-80 (Polysorbate 80, 0.002% final concentration) containing the peptide in serial two-fold dilutions at 10 fold final concentration. The following microorganisms were used to determine antibiotic selectivity of the peptides: Escherichia coli ATCC 25922, Escherichia coli MCR-1 Af 45 and Klebsiella pneumoniae SSI3010.

[2] = system: Escherichia coli MCR-1 Af 45; conditions: MCR-1 Af 45
Method: as §1, §2, §3

[3] = system: Klebsiella pneumoniae SSI3010; conditions: SSI3010
Method: as §1, §2, §3

[4] = system: human red blood cells (hRBC); test: Hemolysis of human red blood cells; type: cell-based; conditions: red cells of human, 1 h
Method: Lyophilized peptides were weighed on a Microbalance (Mettler MT5) and dissolved in sterile water to a final concentration of 1 mg/mL. Stock solutions were kept at +4° C., light protected. The peptides were tested for their hemolytic activity against human red blood cells (hRBC). Fresh hRBC were washed three times with phosphate buffered saline (PBS) and centrifuged for 5 min at 3000×g. Compounds (200 μg/mL) were incubated with 20% hRBC (v/v) for 1 h at 37° C. and shaking at 300 rpm. […] The samples were centrifuged, the supernatants were 8-fold diluted in PBS buffer and the optical densities (OD) were measured at 540 nm. […] Percent hemolysis was calculated as follows: (OD540peptide/OD540H2O)×100%.

| Escherichia coli ATCC 25922 MIC [1] | Escherichia coli MCR-1 Af 45 MIC [2] | Klebsiella pneumoniae SSI3010 MIC [3] | SMILES | Hemolysis at 0.2 g/L [4] |
| --- | --- | --- | --- | --- |
| 0.125 µg/mL | 0.125 µg/mL | 0.125 µg/mL | CCCC[C@H](NC(=O)[C@H](CCCNC(=N)N)NC(=O)[C@H](CCN)NC(=O)[C@@H]1CSSC(C)(C)[C@H](NC(=O)[C@H](Cc2ccc(O)cc2)NC(=O)[C@@H](NC(=O)[C@@H](NC(=O)[C@@H]2CCCN2C(=O)[C@@H](NC(=O)[C@@H]2C[C@@H](N)CN2)C(C)C)[C@@H](C)CC)[C@@H](C)CC)C(=O)N[C@@H](CC(N)=O)C(=O)N[C@@H](CCCNC(=N)N)C(=O)N[C@@H](CCN)C(=O)N[C@@H]([C@@H](C)O)C(=O)N[C@H](CCN)C(=O)N[C@@H](CCCCN)C(=O)N1)C(=O)O [Example 4, Pro((4R)NH2)-Val-Pro-Ile-Ile-Tyr-Pen-Asn-Arg-Dab-Thr-^DDab-Lys-Cys-Dab-Arg-Nle] (HELM PEPTIDE1{[N[C@H]1CN[C@H](C(=O)[*:2])C1].V.P.I.I.Y.[Pen].N.R.[Dab].T.[NCC[C@@H](N[*:1])C(=O)[*:2]].K.C.[Dab].R.[Nle]}$PEPTIDE1,PEPTIDE1,7:R3-14:R3$$$V2.0) | 0% |
| 0.0625 µg/mL | 0.0625 µg/mL | 0.25 µg/mL | CCCC[C@H](NC(=O)[C@H](CCCNC(=N)N)NC(=O)[C@H](CCN)NC(=O)[C@@H]1CSSC(C)(C)[C@H](NC(=O)[C@H](Cc2ccc(O)cc2)NC(=O)[C@@H](NC(=O)[C@@H](NC(=O)[C@@H]2C[C@@H](N)CN2C(=O)[C@@H](NC(=O)[C@@H]2CCCN2)C(C)C)[C@@H](C)CC)[C@@H](C)CC)C(=O)N[C@@H](CC(N)=O)C(=O)N[C@@H](CCCNC(=N)N)C(=O)N[C@@H](CCN)C(=O)N[C@@H]([C@@H](C)O)C(=O)N[C@H](CCN)C(=O)N[C@@H](CCCCN)C(=O)N1)C(=O)O [Example 5, Pro-Val-Pro((4R)NH2)-Ile-Ile-Tyr-Pen-Asn-Arg-Dab-Thr-^DDab-Lys-Cys-Dab-Arg-Nle] (HELM PEPTIDE1{P.V.[N[C@@H]1C[C@@H](C(=O)[*:2])N([*:1])C1].I.I.Y.[Pen].N.R.[Dab].T.[NCC[C@@H](N[*:1])C(=O)[*:2]].K.C.[Dab].R.[Nle]}$PEPTIDE1,PEPTIDE1,7:R3-14:R3$$$V2.0) | 0% |
| 0.125 µg/mL | 0.125 µg/mL | 0.25 µg/mL | CCCC[C@H](NC(=O)[C@H](CCCNC(=N)N)NC(=O)[C@H](CCN)NC(=O)[C@@H]1CSSC(C)(C)[C@H](NC(=O)[C@H](Cc2ccc(O)cc2)NC(=O)[C@@H](NC(=O)[C@@H](NC(=O)[C@@H]2CCCN2C(=O)[C@@H](NC(=O)CNCCN)C(C)C)[C@@H](C)CC)[C@@H](C)CC)C(=O)N[C@@H](CC(N)=O)C(=O)N[C@@H](CCCNC(=N)N)C(=O)N[C@@H](CCN)C(=O)N[C@@H]([C@@H](C)O)C(=O)N[C@H](CCN)C(=O)N[C@@H](CCCCN)C(=O)N1)C(=O)O [Example 6, Ndab-Val-Pro-Ile-Ile-Tyr-Pen-Asn-Arg-Dab-Thr-^DDab-Lys-Cys-Dab-Arg-Nle] (HELM PEPTIDE1{[NCCNCC(=O)[*:2]].V.P.I.I.Y.[Pen].N.R.[Dab].T.[NCC[C@@H](N[*:1])C(=O)[*:2]].K.C.[Dab].R.[Nle]}$PEPTIDE1,PEPTIDE1,7:R3-14:R3$$$V2.0) | 0% |
